For one substance, adverse effects results are on record in patent US7893252B2, “Selectively depolymerized galactomannan polysaccharide” (priority 2003, dated 2011).

The subject of the series is beagle dogs. In words: 28-day canine study (Example 9). It is filed as in vivo. The following applies: galactomannan at 500 mg/m2, daily IV for four consecutive days. The method, then: In a 28-day canine study, single daily IV doses of saline, 6 mg/kg (120 mg/m2) 5-FU and ([…] (240 mg/m2) galactomannan or 4/2 mg/kg (80/40 mg/m2), 6/3.2 mg/kg (120/64 mg/m2) or 6/6 mg/kg (120/120 mg/m2) 5-FU/galactomannan were injected for four consecutive days to six groups of beagle dogs Mortality occurred in 13 of 48 dogs (five moribund sacrifices and eight found dead) between Study Days 2 and 5 (4/4 males on 5-FU; 3/4 males in the 4/2 mg/kg 5-FU/galactomannan group; 2/4 males and 1/4 females in the 6/3.2 and 6/6 mg/kg 5-FU/galactomannan groups, respectively).
Adverse effects in 5-FU groups included ataxia, prostration, vocalization, convulsions, tremors, hypersensitivity to touch, aggressive behavior (resulting in only three doses being given to the 6/3.2 5-FU/galactomanna group), emesis, salivation, soft stools and decreased red cell parameters and platelet counts. […] At the day 5 necropsy, treatment-related histological changes were largely limited to the 5-FU females. At day 29 necropsy, there were no remarkable changes in the survivors.

Turning to “(((1,4)-linked β-D-mannopyranose)17-((1,6)-linked-β-D-galactopyranose)10)12) [GM]”, the adverse effects entry was “no observed adverse effects”.
